The CC50 is the concentration that lowers cell viability or growth by half. What is called AC50 is the concentration at which the activity in the assay is half-maximal. For orientation: EC50 means the midpoint of the concentration-response curve.

This note sets out measurements from ChEMBL document CHEMBL1201862, “PubChem BioAssay data set” (2004).

Calls of active or inactive are those of the source.

Test [1] in a line: THP-1 cell cytotoxicity, dose response, cytotoxicity control for non-replicating M. tuberculosis project (AID 489025). It counts as functional.
The nature of test [2]: cells. It counts as functional.
Test [3] concerns the target FAD-linked sulfhydryl oxidase ALR (Homo sapiens, UniProt P55789). Put plainly: inhibitors of human ALR sulfhydryl oxidase, dose response, biochemical, H2O2 detection, luminescence, cherry-pick (AID 493248).
Test [4] addresses Voltage-dependent T-type calcium channel subunit alpha-1H (Homo sapiens, UniProt O95180). It counts as functional.
Test [5] is described as follows: NIH-3T3 fibroblast cytotoxicity, dose response, cytotoxicity control, cell-based, fluorescence, Alamar Blue, secondary assay (AID 2327).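 Also: NIH-3T3 mouse fibroblasts cultured with fluconazole at 8 µg/mL.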 It counts as functional. (The colour change of resazurin is a common sign of viable cells or microbes.)
The nature of test [6]: cells. It counts as functional, cell-based.
Test [7] is described as follows: cells. The format is functional, cell-based. The source holds these as a separate data set.
Test [8] has as its target T1, High affinity choline transporter 1 (Homo sapiens, UniProt Q9GZV3).
T1 sequence (Q9GZV3 whole entry): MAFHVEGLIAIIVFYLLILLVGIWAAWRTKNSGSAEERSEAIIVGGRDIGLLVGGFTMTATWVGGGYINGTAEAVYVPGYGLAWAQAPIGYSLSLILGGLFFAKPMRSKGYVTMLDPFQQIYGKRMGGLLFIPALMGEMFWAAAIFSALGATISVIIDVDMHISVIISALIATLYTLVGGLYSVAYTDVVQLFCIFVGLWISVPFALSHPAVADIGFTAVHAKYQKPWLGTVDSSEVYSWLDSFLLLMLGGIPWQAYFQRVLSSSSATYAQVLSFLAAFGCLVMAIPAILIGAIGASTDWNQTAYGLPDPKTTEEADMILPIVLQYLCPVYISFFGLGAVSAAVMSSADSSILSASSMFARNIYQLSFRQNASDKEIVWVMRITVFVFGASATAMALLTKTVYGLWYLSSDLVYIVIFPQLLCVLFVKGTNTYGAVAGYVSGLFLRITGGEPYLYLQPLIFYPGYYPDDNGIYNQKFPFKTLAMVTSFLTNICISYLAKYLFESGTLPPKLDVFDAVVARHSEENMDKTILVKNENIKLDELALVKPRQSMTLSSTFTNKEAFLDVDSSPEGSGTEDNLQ
Put plainly: CHT inhibitors, dose response, cell-based, 5-point CRC, membrane potential dye (AID 504840). The format is functional.

Test [9] addresses T2, Polyadenylate-binding protein 1 (Homo sapiens, UniProt P11940). Briefly: PABP1 MLLE–PAM2 interaction inhibitors, dose response, miRNA deadenylation inhibitor project, biochemical, fluorescence polarization, Cy5-PAM2 peptide, secondary (AID 602260). The format is functional. The note with it: read-out: IC50_Mean. On the technique in general: Polarisation of emitted light reports the rotation of a fluorescent probe.

Test [10] has as its target T2, Polyadenylate-binding protein 1. Briefly: PABP1 MLLE–PAM2 binding inhibitor potency, dose response, biochemical, fluorescence polarization, FITC-PAM2 peptide (AID 602259). It counts as functional. The note with it: read-out: IC50_Mean.
In a further test the target is Estrogen receptor beta (Homo sapiens, UniProt Q92731).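 Also: recombinant ER-beta bound to coactivator SRC1 peptide in presence of estradiol agonist; inhibitors block coactivator peptide binding and lower the FRET signal.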
Estrogen receptor beta, sequence (Q92731 whole entry): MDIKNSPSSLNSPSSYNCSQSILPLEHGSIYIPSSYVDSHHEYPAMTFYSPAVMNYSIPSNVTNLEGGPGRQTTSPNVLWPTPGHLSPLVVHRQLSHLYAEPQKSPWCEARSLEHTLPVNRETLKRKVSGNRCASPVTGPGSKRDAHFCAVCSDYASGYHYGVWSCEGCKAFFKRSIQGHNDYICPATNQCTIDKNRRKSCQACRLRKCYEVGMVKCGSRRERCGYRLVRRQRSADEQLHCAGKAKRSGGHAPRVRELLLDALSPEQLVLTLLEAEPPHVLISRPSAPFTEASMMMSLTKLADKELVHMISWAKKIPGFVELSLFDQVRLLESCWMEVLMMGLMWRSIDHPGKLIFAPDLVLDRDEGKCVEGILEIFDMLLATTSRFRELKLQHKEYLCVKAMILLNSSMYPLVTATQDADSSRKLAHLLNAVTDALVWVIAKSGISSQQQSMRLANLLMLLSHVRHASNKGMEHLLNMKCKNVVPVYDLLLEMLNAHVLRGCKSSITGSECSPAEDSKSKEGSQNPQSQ
The target of test [11] is Glyceraldehyde-3-phosphate dehydrogenase (Homo sapiens, UniProt P04406).
Glyceraldehyde-3-phosphate dehydrogenase, sequence (P04406 whole entry): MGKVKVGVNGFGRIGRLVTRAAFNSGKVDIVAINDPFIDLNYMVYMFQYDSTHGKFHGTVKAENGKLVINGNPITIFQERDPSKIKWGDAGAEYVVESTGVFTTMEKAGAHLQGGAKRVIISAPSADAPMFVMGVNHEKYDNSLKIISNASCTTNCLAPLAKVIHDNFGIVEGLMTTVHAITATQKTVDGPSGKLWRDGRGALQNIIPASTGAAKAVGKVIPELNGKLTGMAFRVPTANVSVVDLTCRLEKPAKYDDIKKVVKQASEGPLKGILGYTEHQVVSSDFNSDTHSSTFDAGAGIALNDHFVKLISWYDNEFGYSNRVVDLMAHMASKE
Another test concerns Streptococcus. Put plainly: Group A Streptococcus viability loss, dose response, counter-screen for streptokinase expression inhibitor project, luminescence, BacTiterGlo (AID 1915).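 Also: potency for reduction of bacterial viability or growth.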 It counts as functional, organism-based. (A counterscreen serves to expose hits that act by an unwanted route or on another target.)
The target of the next test is T3, Streptokinase A (Streptococcus pyogenes serotype M1, UniProt P10520).
T3 sequence (P10520 whole entry): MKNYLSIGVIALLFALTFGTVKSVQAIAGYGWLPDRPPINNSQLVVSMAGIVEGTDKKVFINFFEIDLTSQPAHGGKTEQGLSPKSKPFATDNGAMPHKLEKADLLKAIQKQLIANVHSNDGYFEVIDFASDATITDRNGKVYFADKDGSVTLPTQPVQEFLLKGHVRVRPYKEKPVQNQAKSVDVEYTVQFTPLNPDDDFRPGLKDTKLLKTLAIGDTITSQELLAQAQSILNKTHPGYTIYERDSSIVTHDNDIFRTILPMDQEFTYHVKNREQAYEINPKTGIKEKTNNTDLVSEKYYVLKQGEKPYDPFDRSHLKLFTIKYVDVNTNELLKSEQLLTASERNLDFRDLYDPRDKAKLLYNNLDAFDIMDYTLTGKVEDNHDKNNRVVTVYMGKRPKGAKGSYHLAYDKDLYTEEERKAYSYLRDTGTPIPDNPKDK
Briefly: S. pyogenes streptokinase expression inhibitors, potency, dose response, plasminogen activation absorbance, OD405 (AID 1914).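 Also: secreted streptokinase activity via plasminogen activation per viability signal from cell pellet.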 The format is functional, Streptococcus pyogenes M1 GAS.

Test [12] relates to Streptococcus sp. 'group A'. Briefly: growth inhibition of control SK(-) GAS strain, dose response, counter-screen for streptokinase expression inhibitor project, luminescence, kanamycin, BacTiterGlo, confirmation (AID 1900). The format is functional, organism-based.
A further test addresses T4, Protein skinhead-1 (Caenorhabditis elegans, UniProt P34707).
T4 sequence (P34707 whole entry): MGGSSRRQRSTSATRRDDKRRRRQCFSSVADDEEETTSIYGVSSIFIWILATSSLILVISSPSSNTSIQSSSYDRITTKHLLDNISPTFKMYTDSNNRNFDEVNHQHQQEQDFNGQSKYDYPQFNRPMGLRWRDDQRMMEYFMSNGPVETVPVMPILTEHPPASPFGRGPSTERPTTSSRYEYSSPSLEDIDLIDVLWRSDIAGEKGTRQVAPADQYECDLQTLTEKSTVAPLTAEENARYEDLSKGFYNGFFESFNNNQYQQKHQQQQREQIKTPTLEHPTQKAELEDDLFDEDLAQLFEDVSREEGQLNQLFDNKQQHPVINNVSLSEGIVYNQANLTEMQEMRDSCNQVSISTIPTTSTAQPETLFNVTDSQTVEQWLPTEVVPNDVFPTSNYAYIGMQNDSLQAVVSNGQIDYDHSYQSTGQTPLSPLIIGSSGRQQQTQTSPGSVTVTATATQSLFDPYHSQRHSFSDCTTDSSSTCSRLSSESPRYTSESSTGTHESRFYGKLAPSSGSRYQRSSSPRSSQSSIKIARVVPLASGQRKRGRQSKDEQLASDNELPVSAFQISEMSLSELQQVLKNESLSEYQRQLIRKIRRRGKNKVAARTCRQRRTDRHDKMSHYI
The format is functional.

Test [13] can be described thus: inhibitors of intracellular T. cruzi replication, confirmation, NIH3T3 host cells, beta-gal luminescence (AID 2044).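 Also: intracellular parasites grown in NIH/3T3 mouse fibroblasts as host cells; luminescent beta-galactosidase reporter signal from transgenic T. cruzi replicating inside host cells; inhibitors lower the luminescence signal.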 It counts as functional, cell-based.
Test [14] is described as follows: cytotoxicity toward NIH3T3 fibroblasts, dose response, counter-screen, cell-based, ATP luminescence, mouse fibroblasts (AID 2010).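 Also: cells exposed to compound for about 90 hours before reading.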 It counts as functional.
For another test, the target named is Paired box protein Pax-8 (Homo sapiens, UniProt Q06710). Briefly: inhibitors of PAX8-driven TPO luciferase reporter, dose response, RMG-I cells, cherry-pick (AID 687027).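 Also: luciferase reporter driven by Pax8 target thyroperoxidase promoter measured by SteadyGlo luminescence.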 The format is functional, cell-based.
Paired box protein Pax-8, sequence (Q06710 whole entry): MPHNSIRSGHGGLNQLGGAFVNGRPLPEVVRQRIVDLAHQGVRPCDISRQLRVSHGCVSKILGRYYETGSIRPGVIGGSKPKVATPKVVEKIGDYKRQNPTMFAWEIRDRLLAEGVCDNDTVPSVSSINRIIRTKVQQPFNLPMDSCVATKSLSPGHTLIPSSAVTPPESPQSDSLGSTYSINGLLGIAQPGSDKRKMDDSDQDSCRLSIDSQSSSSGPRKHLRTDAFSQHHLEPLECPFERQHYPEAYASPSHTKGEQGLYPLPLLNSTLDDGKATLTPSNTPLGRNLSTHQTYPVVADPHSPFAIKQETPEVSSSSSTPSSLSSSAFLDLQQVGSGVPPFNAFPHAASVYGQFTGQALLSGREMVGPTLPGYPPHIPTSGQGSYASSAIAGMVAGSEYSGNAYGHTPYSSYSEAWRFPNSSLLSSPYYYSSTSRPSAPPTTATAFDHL
A further test relates to INS1. Briefly: beta cell apoptosis inhibitors, cytokine rescue, dose response, luminescence, retest (AID 449756).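 Also: cell death triggered by IL-1 beta plus TNF-alpha plus IFN-gamma mixture; protective hits raise ATP signal compared with cytokine alone wells.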 The format is functional, cell-based. The note with it: Rattus norvegicus.

T2 sequence (P11940 whole entry): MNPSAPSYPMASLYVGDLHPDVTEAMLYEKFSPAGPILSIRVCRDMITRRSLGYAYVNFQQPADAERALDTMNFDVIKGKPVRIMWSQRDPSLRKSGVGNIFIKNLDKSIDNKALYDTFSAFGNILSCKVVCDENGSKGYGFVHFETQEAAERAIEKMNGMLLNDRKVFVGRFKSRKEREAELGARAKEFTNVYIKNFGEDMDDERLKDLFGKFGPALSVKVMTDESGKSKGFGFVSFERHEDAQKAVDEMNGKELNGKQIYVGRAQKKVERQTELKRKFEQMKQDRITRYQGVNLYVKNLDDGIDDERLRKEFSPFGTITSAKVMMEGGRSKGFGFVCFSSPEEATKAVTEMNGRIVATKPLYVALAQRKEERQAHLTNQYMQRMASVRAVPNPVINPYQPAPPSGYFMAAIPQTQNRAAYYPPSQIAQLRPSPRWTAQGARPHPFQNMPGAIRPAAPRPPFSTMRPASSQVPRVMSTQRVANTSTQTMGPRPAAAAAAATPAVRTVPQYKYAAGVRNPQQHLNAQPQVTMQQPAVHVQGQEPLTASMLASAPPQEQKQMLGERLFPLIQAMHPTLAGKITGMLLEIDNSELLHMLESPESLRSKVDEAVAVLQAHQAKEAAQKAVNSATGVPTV
FAD-linked sulfhydryl oxidase ALR, sequence (P55789 whole entry): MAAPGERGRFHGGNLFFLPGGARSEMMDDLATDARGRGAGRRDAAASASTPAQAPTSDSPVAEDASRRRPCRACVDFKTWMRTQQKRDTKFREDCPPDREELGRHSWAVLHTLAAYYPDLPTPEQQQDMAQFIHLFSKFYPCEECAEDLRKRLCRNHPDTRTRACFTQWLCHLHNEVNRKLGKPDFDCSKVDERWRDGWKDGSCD
Voltage-dependent T-type calcium channel subunit alpha-1H, sequence (O95180 whole entry): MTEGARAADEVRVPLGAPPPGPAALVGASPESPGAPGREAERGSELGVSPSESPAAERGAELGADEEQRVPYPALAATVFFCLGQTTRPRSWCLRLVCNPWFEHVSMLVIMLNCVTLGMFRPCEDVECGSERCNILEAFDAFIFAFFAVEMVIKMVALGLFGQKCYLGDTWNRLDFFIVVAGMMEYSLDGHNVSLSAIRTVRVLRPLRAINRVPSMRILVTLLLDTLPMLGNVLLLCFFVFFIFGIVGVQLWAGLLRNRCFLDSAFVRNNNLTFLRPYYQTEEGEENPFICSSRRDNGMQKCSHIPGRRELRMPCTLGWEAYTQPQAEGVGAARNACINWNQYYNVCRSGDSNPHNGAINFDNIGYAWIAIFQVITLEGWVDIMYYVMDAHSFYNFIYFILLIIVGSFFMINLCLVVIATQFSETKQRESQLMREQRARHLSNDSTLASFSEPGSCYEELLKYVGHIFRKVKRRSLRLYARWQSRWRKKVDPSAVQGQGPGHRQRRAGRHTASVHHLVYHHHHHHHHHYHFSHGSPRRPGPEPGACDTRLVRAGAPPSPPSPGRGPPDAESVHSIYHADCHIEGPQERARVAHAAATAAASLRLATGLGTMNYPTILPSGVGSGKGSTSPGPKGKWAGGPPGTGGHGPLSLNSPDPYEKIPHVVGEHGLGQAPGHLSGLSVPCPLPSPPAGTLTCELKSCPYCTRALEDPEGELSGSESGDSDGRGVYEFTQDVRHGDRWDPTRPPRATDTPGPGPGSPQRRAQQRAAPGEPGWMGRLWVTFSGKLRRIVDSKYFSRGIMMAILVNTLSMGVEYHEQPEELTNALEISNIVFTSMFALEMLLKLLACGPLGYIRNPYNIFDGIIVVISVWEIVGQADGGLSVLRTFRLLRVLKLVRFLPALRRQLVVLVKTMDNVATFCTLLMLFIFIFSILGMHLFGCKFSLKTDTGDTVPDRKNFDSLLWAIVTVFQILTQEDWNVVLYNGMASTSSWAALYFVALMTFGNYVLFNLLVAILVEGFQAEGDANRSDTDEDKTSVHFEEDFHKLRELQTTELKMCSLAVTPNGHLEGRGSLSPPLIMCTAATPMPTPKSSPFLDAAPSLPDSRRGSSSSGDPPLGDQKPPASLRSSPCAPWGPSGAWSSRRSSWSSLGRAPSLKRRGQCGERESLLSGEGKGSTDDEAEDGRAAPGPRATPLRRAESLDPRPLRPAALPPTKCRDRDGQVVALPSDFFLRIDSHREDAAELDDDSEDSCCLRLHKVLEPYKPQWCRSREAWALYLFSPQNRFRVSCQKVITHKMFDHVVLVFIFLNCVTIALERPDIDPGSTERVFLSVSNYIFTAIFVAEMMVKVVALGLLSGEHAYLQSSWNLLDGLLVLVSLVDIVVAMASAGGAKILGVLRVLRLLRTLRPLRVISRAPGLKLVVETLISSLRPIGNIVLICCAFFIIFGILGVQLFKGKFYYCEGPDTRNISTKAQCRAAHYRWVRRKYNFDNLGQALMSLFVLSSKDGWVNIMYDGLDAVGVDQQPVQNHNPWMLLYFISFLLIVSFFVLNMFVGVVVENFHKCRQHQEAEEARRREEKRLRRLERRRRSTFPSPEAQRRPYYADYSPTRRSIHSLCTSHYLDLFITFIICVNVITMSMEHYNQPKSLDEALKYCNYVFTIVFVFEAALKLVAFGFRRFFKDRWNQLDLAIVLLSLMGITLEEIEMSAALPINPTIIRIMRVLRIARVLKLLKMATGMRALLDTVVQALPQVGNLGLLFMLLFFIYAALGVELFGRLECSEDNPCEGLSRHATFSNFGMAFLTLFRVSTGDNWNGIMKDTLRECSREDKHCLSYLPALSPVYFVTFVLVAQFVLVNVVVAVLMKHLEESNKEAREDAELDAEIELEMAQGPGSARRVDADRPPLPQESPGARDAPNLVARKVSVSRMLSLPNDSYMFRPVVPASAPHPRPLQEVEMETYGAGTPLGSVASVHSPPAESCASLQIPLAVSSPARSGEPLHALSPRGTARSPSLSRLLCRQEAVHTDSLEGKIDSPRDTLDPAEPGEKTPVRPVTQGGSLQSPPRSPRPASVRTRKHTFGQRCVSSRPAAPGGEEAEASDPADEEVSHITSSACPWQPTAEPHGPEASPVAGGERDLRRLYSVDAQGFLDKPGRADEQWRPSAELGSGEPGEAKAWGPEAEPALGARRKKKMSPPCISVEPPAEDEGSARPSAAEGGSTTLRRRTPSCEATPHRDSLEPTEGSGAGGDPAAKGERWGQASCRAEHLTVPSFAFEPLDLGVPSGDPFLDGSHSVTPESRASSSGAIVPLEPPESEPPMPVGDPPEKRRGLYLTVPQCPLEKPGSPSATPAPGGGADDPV

As for `Cc1cccc2cc(C#N)c(NCCCn3ccnc3)nc12`, the CC50 in test [1] was > 40 µM (active). For the same compound, the IC50 in “cells [2]” is 43.2 µM (active).
On to `CCN(CC)c1ccc(NC(=O)c2ccc(Br)o2)c(C)c1`, for which the AC50 in [3] was 1.61 µM (active).
`CC1CCN(C(=O)C2CCN(CCCc3ccccc3)CC2)CC1`: in [4], the EC50 was 7.69 µM (active).
On to `O=C(Nc1nc2ccccc2[nH]1)c1ccc(F)cc1`, for which the CC50 in test [1] is > 40 µM (active). In addition, the IC50 in the test “cells [2]” is 4.33 µM (active).
On to `Cc1ccc(C(=O)NCc2ccco2)cc1S(=O)(=O)Nc1cccc(Cl)c1`, for which the EC50 in [4] is 5.11 µM (active); in [5] it was > 150 µM (inactive).
Regarding `Nc1nc(-c2ccc3ccccc3c2)cs1`, the AC50 in [3] was 0.188 µM (active).
On to `CCOC(=O)N1CCN(C(=O)c2ccc(Cn3c(=S)[nH]c4cc(OCC)c(OCC)cc4c3=O)cc2)CC1`, for which the EC50 in the test “cells [6]” and in the test “cells [7]” was > 350 µM (not active) in each case.
With `COc1ccccc1CCC(=O)OCC(=O)c1c(N)n(CC(C)C)c(=O)n(C)c1=O`, the IC50 in test [8] is 14.8 µM (active).
Consider `O=C1NC(c2ccccc2)(C(F)(F)F)SC2=CCCCCN12` (configuration not stated), for which the IC50 in [9] and in [10] was > 66 µM (inactive) throughout.
In the case of `O=C(CN1C(=O)COc2ccc(Cl)cc21)Nc1ccc2c(c1)OCCO2`, the EC50 in the test “cells [6]” and in “cells [7]” was > 350 µM (not active) each time.
On to `CCCCC(CC)C(=O)NCc1ccccc1OC` (configuration not stated), for which, on Estrogen receptor beta, the IC50 was > 50 µM (not active).
For `Oc1ccc(-c2nnc(S)n2-c2ccc(F)c(Cl)c2)nn1`, in test [3], the AC50 was 7.36 µM (active).
As to `O=C1C2CCCCC2C(=O)N1c1nc(Cc2ccccc2)n[nH]1` (configuration not stated), in test [11], the IC50 is listed as > 100 µM (not active).
`CCOc1ccc(NC(=O)CN(c2cccc(C(F)(F)F)c2)S(C)(=O)=O)cc1`: the EC50 in [4] was 9.24 µM (active).
With `O=C(NC(=S)NNS(=O)(=O)c1ccc(Cl)cc1)c1cccnc1`, the IC50 in test [9] and in test [10] was > 66 µM (inactive) throughout.
As for `CCC(SC1=NCCS1)C(=O)Nc1ccc(S(N)(=O)=O)cc1` (configuration not stated), the IC50 in test [9] and in [10] was > 66 µM (inactive) throughout.
Regarding `CC1CCCCC1NC(=O)CCn1ccc2cc(S(=O)(=O)N3CCCC3)ccc21` (configuration not stated), the IC50 in test [8] is 17 µM (active). The EC50 (in the test on Streptococcus; on Streptokinase A; in [12]) was > 150 µM (not active) throughout.
Consider `O=C(CCc1ccccc1F)N1CCN(c2ccccc2)CC1`, for which the AC50 in test [3] was > 100 µM (inactive).
Take `CC(C)c1onc(C(=O)Nc2sc3c(c2C#N)CCC3)c1[N+](=O)[O-]`: the EC50 in “cells [6]” and in the test “cells [7]” was > 350 µM (not active) in each case.
Regarding `O=C(Nc1ccc2c(c1)OCO2)N1CCN(c2ncc(C(F)(F)F)cc2Cl)CC1`, the EC50 in test [4] was 1.99 µM (active).
For the compound `CN(CC(=O)N1CCN(c2ccccc2)CC1)S(=O)(=O)c1c[nH]cn1`, the AC50 in test [3] was 4.58 µM (active).
For `Cc1cc(C)cc(NC(=O)CSc2nnc(Cc3cccn3C)n2-c2ccc(F)cc2)c1`, the EC50 in test [4] was 2.01 µM (active).
As for `Clc1ccc(OCCCCSc2ncccn2)cc1`, the IC50 on Protein skinhead-1 was 21.7 µM (active); in [9] it was > 66 µM (inactive); in test [10], > 66 µM (inactive).
As to `CC[n+]1c(/C=C(\C)Nc2ccccc2)sc2ccccc21`, the CC50 in [1] was 30.1 µM (active).
Regarding `CC(=O)Nc1ccc(SC[C@H](Cc2ccccc2)N2CC[C@@H](C(C)(C)C)CCC2=O)cc1`, the IC50 in [9] and in test [10] was > 66 µM (inactive) throughout.
For `O=C(NNS(=O)(=O)c1ccc(C(=O)NC2CCCC2)cc1)c1ccncc1`, the AC50 in test [3] is 1.67 µM (active).
For `O=C(c1ccccc1)N1CC(COc2ccccc2)OC(c2ccco2)O1` (configuration not stated), the EC50 in test [4] is 12.4 µM (active).
`Cc1ccc(-c2cc(C(F)(F)F)n3nc(C(=O)Nc4c(C)n(C)n(-c5ccccc5)c4=O)cc3n2)cc1`: the EC50 in “cells [6]” and in the test “cells [7]” was > 350 µM (not active) in each case.
With `COc1ccccc1NC(=O)C1CCCN(c2ncnc3c2nc2n3CCCCC2)C1` (configuration not stated), the IC50 in [8] is 15.1 µM (active).
With `c1ccc(CCc2nn3c(Cc4ccccc4)nnc3s2)cc1`, the IC50 in test [8] was 27.5 µM (active).
Consider `CCc1ccc(Nc2c([N+](=O)[O-])nn(-c3ccc4c(c3)OCCO4)[n+]2[O-])cc1`, for which, in [8], the IC50 was 12.6 µM (active). The EC50 in test [13] is 0.447 µM (active); in test [14], > 60 µM (not active).
For the compound `CCOC(=O)N1CCc2[nH]c3ccc(C)cc3c2C1`, the IC50 in [9] is > 66 µM (inactive); in test [10], 55.2 µM (inactive).
Take `N#CC1=C(N)Oc2cc(N)ccc2C1C1CC=CCC1` (configuration not stated): in test [3], the half-maximal activity concentration (AC50) was 5.72 µM (active).
Consider `CC(=O)OCc1c(C(F)(F)F)nn(C)c1Oc1cccc(C(F)(F)F)c1`, for which the EC50 in test [4] is 8.45 µM (active).
On to `CCCn1c2ccccc2c2cnn(CC(=O)NCCCN3CCCCC3)c(=O)c21`, for which the IC50 in test [8] was 12.6 µM (active).
As to `C[C@H](CO)N1C[C@H](C)[C@@H](CN(C)S(=O)(=O)c2ccc(Cl)cc2)OCCCC[C@H](C)Oc2ccc(NS(=O)(=O)c3ccc(Cl)cc3)cc2C1=O`, the half-maximal activity concentration (AC50) at Paired box protein Pax-8 was 4.34 µM (active).
On to `CC(/C=C/c1ccccc1F)=N\NC(=O)c1ccccc1`, for which the 50% cytotoxic concentration (CC50) in test [1] is > 40 µM (active). Further, the IC50 in “cells [2]” is 21.8 µM (active).
For the compound `O=c1c2ccccc2nc(COc2ccccc2)n1/N=C/c1ccc(O)cc1O`, the AC50 in the test with INS1 was 4.63 µM (active). For the same compound, the EC50 is 31.9 µM (active) in the test “cells [6]”, 10.6 µM (active) in “cells [7]”, 2.48 µM (active) in [13] and 8.68 µM (active) in test [14].
